Assay results published in US7829063B2, “Development of molecular imaging probes for carbonic anhydrase-IX using click chemistry” (Siemens Medical Solutions USA, Inc., priority 2007, dated 2010).

Columns and labels:
CA-IX [1] = molecular target: T1, CA-IX (Homo sapiens, UniProt Q16790); experiment: CA-IX combinatorial library screening, competitive fluorescence-based assay with dansylamide (DNSA); assay type: binding; settings: Table 1, Libraries 1-3; sample concentrations 100 nM and 1000 nM, DNSA 200 μM; screening at 1 μM
T1 construct: His tag (C); purchased R&D Systems Inc. 2188-CA; host or cells: mouse myeloma cell line NS0
Method in brief: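 Recombinant His-tagged CA-IX (NS0-expressed) in phosphate buffer pH 7.4 with test compound at 100 nM or 1000 nM; competitive displacement started with 200 μM dansylamide (stock concentration). After 1 h at 25 °C, fluorescence read at 460 nm (excitation 290 nm).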

CA-IX [2] = molecular target: T1, CA-IX; experiment: Binding affinity (Kd) determination for CA-IX inhibitors, DNSA fluorescence competition assay, Scatchard plots; settings: Table 3
Method: General. […] The human red blood cells were obtained from Research Blood Components, LLC. All absorbance measurements were performed on a SPECTRA MAX M2 plate reader at 25° C. The LC/MS analyses were performed on an Agilent 1100 series LC/MSD (SL) using a 30×2.1 mm Zorbax C8 column with a Phenomenex C18 pre-column. Compound detection was accomplished by electrospray mass spectroscopy in positive selected ion mode (LC/MS-SIM). The elution solvents were acetonitrile and water, contained 0.05% TFA. Nuclear magnetic resonance (NMR) spectra were obtained on a Bruker AMX 300 MHz spectrometer or a Varian 400. 19F NMR spectra were recorded on a Bruker AMX 282.35 MHz or a Varian 400 spectrometer. The mass spectra were recorded on an Agilent 1100 series LC/MSD with electrospray mass spectroscopic detection. Flash column chromatography was performed on Merck silica gel (40-63 μm) using the solvent system indicated. The radiochemical and chemical purities were analyzed by RP-HPLC.
General Procedure of Binding Affinity (Ka) Determination for CA-IX Inhibitors
The assay was based on the observation that the only fluorescence signal detected at 460 nm upon excitation at 290 nm, an absorption […] for DNSA, was that of the DNSA.CA complex. […] The latter were developed for each test compound using mass balance for calculating the concentration of CA bound to DNSA [DNSA.CA], bound to the non-fluorescent sample [CA.Inh] and free CA [CA] in solution. The Kd values were determined from Scatchard plots using the equation below as described by Whitesides et al. [CA.Inh]/[CA]tot.[Inh]=K11^inh−K11^inh{[CA.Inh]+[CA.DNSA]}/([CA]tot)
The terms [CA.DNSA], [CA.Inh], and free CA were calculated using the mass balance based on the known values for the dissociation constant of CA.DNSA and the total concentration of CA in each reaction.

Row | Structure (SMILES) | In Vitro Binding Assay (Library Screening) (CA-IX [1]) | Kd (CA-IX [2])
1 | Cc1ccnc(NC(=O)[C@H](Cc2ccccc2)n2cc(-c3ccc(S(N)(=O)=O)cc3)nn2)c1 [DHK7] | √ | 17 nM
2 | CC(C)C(C(=O)NCc1cc(F)ccc1F)n1cc(COc2ccc3nc(S(N)(=O)=O)sc3c2)nn1 (stereo not drawn) [DHK117] | √ | 14.1 nM
3 | Cc1ccc(CNC(=O)[C@H](C(C)C)n2cc(COc3ccc4nc(S(N)(=O)=O)sc4c3)nn2)cc1F [DHK123] | √ | 12.5 nM
4 | CCOC(=O)c1ccc(Cn2cc(COc3ccc4nc(S(N)(=O)=O)sc4c3)nn2)cc1 [DHK125] | √ | 16.7 nM
5 | CC(C)[C@@H](C(=O)NCc1ccco1)n1cc(COc2ccc3nc(S(N)(=O)=O)sc3c2)nn1 [DHK127] | √ | 25 nM
6 | NS(=O)(=O)c1nc2ccc(OCc3cn(Cn4nnc5ccccc54)nn3)cc2s1 [DHK128] | √ | 12.5 nM

More lines, in order of falling Kd (CA-IX [2]), values ahead:

Row | In Vitro Binding Assay (Library Screening) (CA-IX [1]) | Kd (CA-IX [2]) | Structure (SMILES)
7 | √ | 25 nM | NS(=O)(=O)c1nc2ccc(OCc3cn(Cc4cccc(Br)c4)nn3)cc2s1 [DHK121]
8 | √ | 20 nM | NS(=O)(=O)c1ccc(-c2cn(Cn3nnc4ccccc43)nn2)cc1 [DHK29]
9 | √ | 14 nM | NS(=O)(=O)c1ccc(-c2cn(Cn3c(=S)sc4ccccc43)nn2)cc1 [DHK19]
10 |  | 14 nM | NS(=O)(=O)c1nc2cc(OCc3cn(CC(=O)NCCCOCCOCCOCCCNC(=O)c4ccc(C(=O)O)c(-c5c6ccc(=O)cc-6oc6cc(O)ccc56)c4)nn3)ccc2s1 [WZ01101]
11 | √ √ | 10 nM | COC(=O)[C@H](CSCc1ccccc1)NC(=O)Cn1cc(COc2ccc3nc(S(N)(=O)=O)sc3c2)nn1 [DHK113]
12 | √ √ | 5 nM | CC(C)[C@H](C(=O)NCc1ccco1)n1cc(-c2ccc(S(N)(=O)=O)cc2)nn1 (stereo in doubt) [DHK25]
13 |  | 5 nM | NS(=O)(=O)c1nc2ccc(OCc3cn(CC(=O)N[C@@H](Cc4ccc(OCC(O)CF)cc4)C(=O)O)nn3)cc2s1 (stereo partly drawn) [VM4041, (S)-3-(4-(3-fluoro-2-hydroxypropoxy)phenyl)-2-(2-(4-((2-sulfamoylbenzo[d]thiazol-6-yloxy)methyl)-1H-1,2,3-triazol-1-yl)acetamido)propanoic acid]
